# Assay results as given in paper PMC12566511, “The Evaluation of (1R,4R,7R,10R)-α,α′,α″,α‴-Tetramethyl-1,4,7,10-tetraazacyclododecane-1,4,7,10-tetraacetic Acid (DOTMA) as a Chelator for Zirconium-89” (Molecules, 2025).
# Entries after “also recorded” stand apart in the source; their conditions may differ.
# Columns and labels:
# [1] = In vitro serum stability study; type: in vitro ADME, human; details: for % Intact of [^89Zr]Zr-DOTMA (n = 3) Radio-ITLC / % Intact of [^89Zr]Zr-DOTMA (n = 3) Radio-SE-HPLC: human serum, 37 °C
# Experimental: The in vitro serum stability was determined by adding 20 μL of [^89Zr]Zr-DOTMA (113–124 μCi, 4.2–4.6 MBq) to 500 μL of human serum. The solutions (n = 3) were incubated at 37 °C for 7 days and were analyzed daily for 1 week by radio-TLC using Varian ITLC-SA strips, 0.1 M EDTA (pH 5) as the mobile phase, and gamma counting. Samples were also analyzed at 1, 3, 5, and 7 days via size exclusion chromatography (SEC) using a Superdex 200 10/300 GL column (GE Healthcare Life Sciences, Piscataway, NJ, USA) and phosphate buffered saline (PBS) as an eluent with a flow rate of 0.5 mL/min. Fractions (0.5 mL per tube) were collected, and the activity in each fraction was measured in a gamma counter. The percent intact radiopharmaceutical was determined by […] in the chromatogram and multiplying by a factor of 100%.
# [2] = Partition coefficient (LogP), water/octanol partition method; type: physicochemical; details: octanol/water (pH 5.5), room temperature, n = 5
# Experimental: The partition coefficient (LogP) was determined by adding 5 μL of [^89Zr]Zr-DOTMA (~5 μCi; 0.19 MBq) to a mixture of 500 μL of octanol and 500 μL of water (pH 5.5). The resulting solutions (n = 5) were vigorously vortexed for 5 min at room temperature, then centrifuged for 5 min to ensure complete separation of layers. From each of the five sets, a 50 μL aliquot was removed from each phase into new tubes and counted separately in a gamma counter. Each organic phase was washed with water to remove any radioactivity remaining in the organic phase before gamma counting. The partition coefficient was calculated as a ratio of counts in the octanol fraction to counts in the water fraction. The LogP values were reported as an average of five measurements.
# [3] = In vitro EDTA challenge study; type: physicochemical; details: for % Intact of [^89Zr]Zr-Complex (n = 3): 37 °C, radio-ITLC
# Experimental: The solutions (n = 3) were incubated at 37 °C for 7 days in a thermomixer. Samples were analyzed at 0, 1, 3, 5, and 7 days post administration to EDTA using radio-TLC, Varian ITLC-SA strips, 50 mM EDTA (pH 5) as the mobile phase, and gamma counting. All studies were performed in triplicate.
smiles,measurement,setting,value
CC(C(=O)[O-])N1CCN(C(C)C(=O)[O-])CCN(C(C)C(=O)[O-])CCN(C(C)C(=O)[O-])CC1.[89Zr+4] (stereo not shown) [[^89Zr]Zr-DOTMA],% Intact of [^89Zr]Zr-DOTMA (n = 3) Radio-ITLC,[1]; 0 h,≥99.99%
same,% Intact of [^89Zr]Zr-DOTMA (n = 3) Radio-SE-HPLC,[1]; 0 h,≥99.99%
same,% Intact of [^89Zr]Zr-DOTMA (n = 3) Radio-ITLC,[1]; 1 d,≥99.99%
same,% Intact of [^89Zr]Zr-DOTMA (n = 3) Radio-SE-HPLC,[1]; 1 d,≥99.99%
same,% Intact of [^89Zr]Zr-DOTMA (n = 3) Radio-ITLC,[1]; 3 d,≥99.99%
same,% Intact of [^89Zr]Zr-DOTMA (n = 3) Radio-SE-HPLC,[1]; 3 d,≥99.99%
same,% Intact of [^89Zr]Zr-DOTMA (n = 3) Radio-ITLC,[1]; 5 d,≥99.99%
same,% Intact of [^89Zr]Zr-DOTMA (n = 3) Radio-SE-HPLC,[1]; 5 d,≥99.99%
same,% Intact of [^89Zr]Zr-DOTMA (n = 3) Radio-ITLC,[1]; 7 d,≥99.99%
same,% Intact of [^89Zr]Zr-DOTMA (n = 3) Radio-SE-HPLC,[1]; 7 d,99.9 ± 0.1%
same,association of ^89Zr with serum proteins (in words),"[1]; incubation in human serum, seven-day time course",not associated with the serum proteins
same,LogP,[2],−2.97± 0.02
same,stability to excess EDTA challenge (in words),"[3]; 1000-fold excess EDTA, pH 5 or pH 7, seven-day time course",inert; also recorded: stable
same,% Intact of [^89Zr]Zr-Complex (n = 3),"[3]; EDTA 100-fold, pH 5.0, 0 h",≥99.99%
same,% Intact of [^89Zr]Zr-Complex (n = 3),"[3]; EDTA 100-fold, pH 5.0, 1 d",≥99.99%
same,% Intact of [^89Zr]Zr-Complex (n = 3),"[3]; EDTA 100-fold, pH 5.0, 3 d",≥99.99%
same,% Intact of [^89Zr]Zr-Complex (n = 3),"[3]; EDTA 100-fold, pH 5.0, 5 d",≥99.99%
same,% Intact of [^89Zr]Zr-Complex (n = 3),"[3]; EDTA 100-fold, pH 5.0, 7 d",≥99.99%
same,% Intact of [^89Zr]Zr-Complex (n = 3),"[3]; EDTA 100-fold, pH 7.0, 0 h",≥99.99%
same,% Intact of [^89Zr]Zr-Complex (n = 3),"[3]; EDTA 100-fold, pH 7.0, 1 d",≥99.99%
same,% Intact of [^89Zr]Zr-Complex (n = 3),"[3]; EDTA 100-fold, pH 7.0, 3 d",≥99.99%
same,% Intact of [^89Zr]Zr-Complex (n = 3),"[3]; EDTA 100-fold, pH 7.0, 5 d",≥99.99%
same,% Intact of [^89Zr]Zr-Complex (n = 3),"[3]; EDTA 100-fold, pH 7.0, 7 d",≥99.99%
same,% Intact of [^89Zr]Zr-Complex (n = 3),"[3]; EDTA 500-fold, pH 5.0, 0 h",≥99.99%
same,% Intact of [^89Zr]Zr-Complex (n = 3),"[3]; EDTA 500-fold, pH 5.0, 1 d",≥99.99%
same,% Intact of [^89Zr]Zr-Complex (n = 3),"[3]; EDTA 500-fold, pH 5.0, 3 d",≥99.99%
same,% Intact of [^89Zr]Zr-Complex (n = 3),"[3]; EDTA 500-fold, pH 5.0, 5 d",≥99.99%
same,% Intact of [^89Zr]Zr-Complex (n = 3),"[3]; EDTA 500-fold, pH 5.0, 7 d",≥99.99%
same,% Intact of [^89Zr]Zr-Complex (n = 3),"[3]; EDTA 500-fold, pH 7.0, 0 h",≥99.99%
same,% Intact of [^89Zr]Zr-Complex (n = 3),"[3]; EDTA 500-fold, pH 7.0, 1 d",≥99.99%
same,% Intact of [^89Zr]Zr-Complex (n = 3),"[3]; EDTA 500-fold, pH 7.0, 3 d",≥99.99%
same,% Intact of [^89Zr]Zr-Complex (n = 3),"[3]; EDTA 500-fold, pH 7.0, 5 d",≥99.99%
same,% Intact of [^89Zr]Zr-Complex (n = 3),"[3]; EDTA 500-fold, pH 7.0, 7 d",≥99.99%
same,% Intact of [^89Zr]Zr-Complex (n = 3),"[3]; EDTA 1000-fold, pH 5.0, 0 h",≥99.99%
same,% Intact of [^89Zr]Zr-Complex (n = 3),"[3]; EDTA 1000-fold, pH 5.0, 1 d",≥99.99%
same,% Intact of [^89Zr]Zr-Complex (n = 3),"[3]; EDTA 1000-fold, pH 5.0, 3 d",≥99.99%
same,% Intact of [^89Zr]Zr-Complex (n = 3),"[3]; EDTA 1000-fold, pH 5.0, 5 d",≥99.99%
same,% Intact of [^89Zr]Zr-Complex (n = 3),"[3]; EDTA 1000-fold, pH 5.0, 7 d",≥99.99%
same,% Intact of [^89Zr]Zr-Complex (n = 3),"[3]; EDTA 1000-fold, pH 7.0, 0 h",≥99.99%
same,% Intact of [^89Zr]Zr-Complex (n = 3),"[3]; EDTA 1000-fold, pH 7.0, 1 d",≥99.99%
same,% Intact of [^89Zr]Zr-Complex (n = 3),"[3]; EDTA 1000-fold, pH 7.0, 3 d",≥99.99%
same,% Intact of [^89Zr]Zr-Complex (n = 3),"[3]; EDTA 1000-fold, pH 7.0, 5 d",≥99.99%
same,% Intact of [^89Zr]Zr-Complex (n = 3),"[3]; EDTA 1000-fold, pH 7.0, 7 d",≥99.99%
